Test results taken from patent US11193941B2, “Method for evaluating condition of skin dryness” (KAO CORPORATION, priority 2014, dated 2021).

Test system: AGR2 mRNA
Assay: Promoting action of humectant on AGR2 gene expression level in normal human epidermal cells (Real-Time PCR)
Assay type: cell-based
Settings: NHEK, 72 hour culture; for AGR2 expression compared to that in the control: result in words; for AGR2 expression level (relative value): normalized with RPLP0, control (99.5% EtOH solvent) = 1, n=2
Experimental: The normal human epidermal cells (NHEK) were cultured under conditions of 37° C. and 5% CO2 using EpiLife (Registered Trademark) (purchased from Kurabo). The cells were seeded in a 12 well plate at 1×10^5 cells and cultured for 48 hours, and the medium was then exchanged with a serum-free medium. Further, vitamin D3, which is a known agent for ameliorating dry skin, (99.5% ethanol solution, final concentration 1 nM or 10 nM) (Nutrients, 4(9):1213-8, 2012), eucalyptus extract (50% ethanol solution, final concentration 0.001%) (J Cosmet Dermatol, 12(1):3-11, 2013), macrocarpal, which is a major physiologically active substance of eucalyptus extract (50% ethanol solution, final concentration 10 nM) (Int J Cosmet Sci, 34(1):17-22, 2012), or 99.5% ethanol or 50% ethanol as a control was added to the medium. After 72 hour culture, total RNA was extracted from cells using RNeasy (Registered Trademark) Mini Kit (QIAGEN). The concentration of total RNA was measured and a reverse transcription reaction was carried out using a constant amount of total RNA. High capacity RNA-to-cDNA kit (Applied Biosystems) was used for the reverse transcription reaction. The expression of AGR2 mRNA was quantitatively determined from the obtained cDNA by Real-Time PCR. Taqman (Registered Trademark) Probe (AGR2: Hs00180702_m1, Applied Biosystems) was used for quantitative determination, and PRISM 7500 (Applied Biosystems) was used for detection and quantitative determination. PCR was carried out in a 20 μL reaction system and the amplification conditions were a denaturation reaction at 95° C. for 15 seconds, annealing at 60° C. for a minute and an elongation reaction. The mRNA expression level was normalized with the expression level of RPLP0 (Hs99999902_m1, Applied Biosystems) and shown as a relative value in the case where the mean expression level of AGR2 in a control (only 99.5% EtOH solvent) was considered as 1.

Compound | AGR2 expression compared to that in the control | AGR2 expression level (relative value) (final concentration 1 nM) | AGR2 expression level (relative value) (final concentration 10 nM)
C=C1CC[C@H](O)C/C1=C/C=C1\CCC[C@]2(C)[C@@H]([C@H](C)CCCC(C)C)CC[C@@H]12 [Vitamin D3, vitamin D3] | increased | 1.05 | 1.17
macrocarpal | increased | – | 1.17
